Like-named read-outs stand apart in the source and are kept apart here.
Experiments:
CT-1 promoter = test: CT1-promoter luciferase reporter activity in ES cell-derived cardiomyocytes; assay type: cell-based, mouse; conditions: 0.1 μM, incubation for 4h, corrected for total protein
Method: Gated cardiomyocytes where cultivated in 6 cm tissue culture dishes. Fresh medium was supplemented with the test compound in concentrations ranging from 0.01-10 μM. For heat shock treatment the cells where incubated at 42° C. for 30 min. Mock treated cells served as control. […] After 4h of incubation the cells where washed with PBS, collected in reporter lysis buffer (RLB, Promega) and stored at −80° C. The Luciferase-activity in the thawed lysates was measured by flash-light Luciferase assay (Promega). In order to quantify Luciferase-activity a serial diluted recombinant Luciferase standard was analyzed in parallel. Values for Luciferase-activity where correct for the amount of total protein in the lysates measured by BCA-assay (Pierce). The transcriptional activity of the CT1-promoter was analyzed by measurement of Luciferase activity in the cellular lysates.

[1] = system: ES-cell derived cardiomyocytes; test: Beating frequency of ES cell-derived cardiomyocytes (contractions counted manually during 15 sec); assay type: cell-based, mouse; conditions: cardiomyocytes 25 days after start of differentiation
Method: Gated cardiomyocytes where cultivated in 6 cm tissue culture dishes. Fresh medium was supplemented with the test compound in concentrations ranging from 0.01-10 μM. For heat shock treatment the cells where incubated at 42° C. for 30 min. Mock treated cells served as control. Effects on the cardiomyocyte beating rate where recorded by manually counting the number of contractions during 15 sec. Beating rates have been recorded before addition of substances and 15 min and 4h after addition. After 4h of incubation the cells where washed with PBS, collected in reporter lysis buffer (RLB, Promega) and stored at −80° C.
Effects of noradrenaline are mediated via alpha and beta-adrenergic receptors, while isoproterenol effects are mediated specific via β-adrenergic receptors. Since β1 receptors play a pivotal role in mediating the beating rate, we analyzed changes in beating frequency of cardiomyocytes as a first indication of a response towards the tested compounds. The beating rate of a individual cluster per plate has been recorded before, 15 min after application of the stimulus and after 4h incubation. FIG. 3 summarizes the data of such an analysis using cardiomyocytes 25 days after start of differentiation. […] Due to the low starting beating frequency in some cases the x-fold increase is quite high. Nevertheless these elevated beating frequencies where still in the physiological range. […]

[2] = system: cardiomyocyte nuclei in the ventricular septum; design: species or system mice; conditions: mouse, in vivo, 7 days
Method: Cryosections (10 μm) were generated using standard histologic techniques. For ISEL analysis, cryosections were processed using the Oncogene Research KLENOW-FragEL DNA Fragmentation Detection Kit. Signal was developed with biotinylated nucleotides and horseradish peroxidase (HRP) conjugated streptavidin (Roche Molecular Biochemicals). Signal was generated by incubation with diaminobenzidine using standard techniques. Beta-galactosidase activity was detected in the same sections via X-GAL staining as described (Soonpaa M. H. et al. (1994) Science 264: 98-101).
Isoproterenol is a beta-adrenergic agonist that induces cardiomyocyte hypertrophy both in vitro and in vivo. Prolonged exposure to isoproterenol is cardiotoxic, inducing cardiomyocyte apoptosis via a mechanism similar to that encountered during the progression of heart failure. The MHC-1152stp mice were tested to determine if transgene expression was cardioprotective during isoproterenol infusion, and specifically to see if 1152stp expression could antagonize isoproterenol-induced cardiomyocyte apoptosis. […]
Mice with a MHC-1152stp/MHC-nLAC genotype and a (−)/MHC-nLAC genotype were culled, and at 12 weeks of age were implanted with isoproterenol-filled osmotic mini-pumps, as described in several studies from our group (Soonpaa M. H. and Field L. J. (1994) American Journal of Physiology 266 (Heart and Circulatory Physiology 35): H1439-1445; Pasumarthi K. B., Nakajima H., Nakajima H. O., Jing S., Field L. J. (2000) Circ Res. 86: 1069-1077). […] Cardiomyocyte apoptosis was then calculated simply by determining the incidence of black HRP signal over blue nuclear staining; these analyses focused on cardiomyocytes residing in the ventricular septum, where the cardiotoxic effects of isoproterenol appear to be most pronounced. […]

[3] = MHC-nLAC transgenic ((−)/MHC-nLAC genotype)

Structure (SMILES) | increase of CT1-promoter activity (Luciferase activity) compared to the untreated control (CT-1 promoter) | change in beating frequency ([1]; 0.1 μM) | % ISEL Positive ([2]; (−)/MHC-nLAC transgenic) [%] | % ISEL Positive [2, 3] [%] | ISEL Positive CM Nuclei [2, 3] | change in beating frequency ([1]; recorded before, 15 min and 4h after application, 0.01-10 μM)
CN(C)CCCN1c2ccccc2CCc2ccccc21 [imipramine] | more than 2 fold | increase in beating frequencies |  |  |  | 
CC(C)NCC(O)c1ccc(O)c(O)c1 (stereo not shown) [isoproterenol] |  |  | ~0.1 | 0.098 | 35 of 35604 | 
NC[C@H](O)c1ccc(O)c(O)c1 [noradrenaline] | 1.73 fold |  |  |  |  | dose dependent increase

Reference: patent publication US20050191693A1, “Methods and cell populations for identifying and validating genomic targets, and for drug screening” (priority 2001, published 2005)
